# From patent US6465007B1, “Transgene expression in polarized cells” (Genzyme Corporation, priority 1998, dated 2002)
# Columns and labels:
# polarized NHBE cells [1] = experiment: In vitro transfection with GL-67:pCF1-SEAP, secreted alkaline phosphatase in apical supernatant; assay type: cell-based, human
# Description: Prior to transfection, polarized NHBE cells on inserts were incubated in either Opti-MEM, Opti-MEM containing 0.1% EGTA, or in Ca^2+-free media (Gibco) in both sides of the insert for 30 min at 37° C. The cells were then washed 3 times with Opti-MEM, and incubated with unlabeled GL-67:pCF1-SEAP (40:53 μM) for 4 h at 37° C., after which they were washed 3 times with Opti-MEM. One ml of culture medium then was added to the outside of the insert (basal side) and 100 μl added to the inside of the insert (apical side). The supernatant from the apical side was collected on day 2 after transfection, heated at 65° C. for 1 h to denature endogenous alkaline phosphatases (Berger et al., Gene, 1988), and assayed in triplicate for secreted alkaline phosphatase (SEAP) activity using an alkaline phosphatase reagent (Sigma) and human placental alkaline phosphatase (Calbiochem, La Jolla, Calif.) as a standard.
# To inhibit NHBE cell proliferation, aphidicolin (0.5 μg/ml; Sigma) was added to culture medium on the basal side of the polarized NHBE cells for 18 h at 37° C. The cells were then transfected as described above except that the concentrations of cationic lipid and pDNA were 80 and 107 μM, respectively. After transfection, aphidicolin was present in the culture medium until the cells were harvested. […] Retinoic acid enhanced the inhibitory effect of aphidicolin on cell proliferation (Chou, R. H. et al., Cell & Tissue Kinetics, 18:387-97, 1985).
# polarized NHBE cells [2] = experiment: Binding and internalization of cationic lipid:pDNA complexes (TOTO-1 label, trypan blue quenching)
# Description: Cells were incubated with TOTO-1 or Rh-PE labeled complexes at 37° C. for the times noted in the figure legends. Following incubation, cells were washed 7 times with cold PBS and then fixed in 2% paraformadehyde for 20 min at 4° C. The membrane of the insert was removed and mounted using immuno-mount (Shandon, Pittsburgh, Pa.) containing 2 μg/ml DAPI (Molecular Probes). Bound and internalized complexes were observed under a fluorescence microscope (Olympus, AX-70). To observe only internalized complexes, cells were washed 2 times with cold PBS and then the fluorescence of surface bound complexes was quenched by a 10 min incubation with trypan blue (1 mg/ml; Diagnostic Systems, Inc., Gibbstown, N.J.) on ice. Cells were then washed an additional 5 times with cold PBS, fixed and mounted.
# Polarized NHBE cells were cultured using a modified procedure based on the methods described by Yamaya et al., American Journal of Physiology, 265:L170-L177 (1993), Jiang et al., Science, 262:424-427 (1993) and Gray et al., American Journal of Respiratory Cell & Molecular Biology, 14:104-112 (1996). Briefly, first passage NHBE cells were plated at a density of 2.5×10^5 cells/cm^2 onto inserts (Millicell-PCF, 0.4 μm pore size, Millipore) coated with human placental collagen (Sigma). The culture medium was the same as that described above for growing NHBE cells as islands. Cultures were maintained under air-liquid interface conditions starting at day 3 following the initial seeding. Cells were considered ready for use when the trans-epithelial resistance was •1000 Ωcm^2.
# [3] = test system: columnar epithelial cells in mouse trachea; experiment: Light and electron microscopy of trachea; assay type: in vivo
# Source text: Tracheas stained with X-gal were removed from the fixing solution and processed for light and electron microscopy using standard procedures. Briefly, the tissues were washed with PBS, dried in alcohols, embedded in glycol methacrylate (GMA) and stained with nuclear fast red. The Ogal-stained cells were identified by light microscopy. For electron microscopy, the fixed tissues were washed three times in Sabatini's solution (1×PBS containing 6.8% sucrose), and postfixed with 1% osmium tetroxide in 0.1 M cacodylate buffer (pH7.4) for an hour, followed by three washes with Sabatini's solution. The samples were then dehydrated with a graded series of alcohols (30, 50, 75, 90 and 100 % for 15 min each), followed by treatments with propylene oxide (15 min), a 1:1 Epon-propylene oxide mix (1 h), and three incubations in pure Epon (3 h, 3 h and overnight). Polymerization was at 64° C. overnight. After embedding, ultrathin sections were cut (MT2 Sorvall ultramicrotome) and stained with lead citrate and uranyl acetate and examined with a JEOL 100CX transmission electron microscope (TEM).
# [4] = test system: epithelial tight junctions of mouse trachea; experiment: Lanthanum precipitation in trachea under TEM; assay type: in vivo; conditions: treated animals vs control animals
# Description: Openings in tight junctions were visualized using a method described previously (Shaklai and Tavassoli, 1977; and Schneeberger and McCormack, 1984) with modifications. Briefly, mouse trachea was fixed with 2.5% glutaraldehyde, 1% lanthanum nitrate in 0.1 M cacodylate buffer, pH 7.4, for 4 to 6 h at […]. The trachea was then rinsed and washed 16 h with three changes of ice-cold 6.8% sucrose in 0.1 M cacodylate buffer ˜pH 7.4). The samples were postfixed in 1% OsO4 in 0.1 M cacodylate buffer containing 1% lanthanum nitrate pH 7.4 at 4° C. for 1 h, and dehydrated and then embedded in epoxy resin.
# tight junctions = conditions: compared with EDTA; cited from earlier work
# mouse trachea = experiment: Aerosolized Ad2βgal-4 after intranasal pre-treatment, X-gal staining; assay type: in vivo
# Description: Viral aerosols were generated using a MiniHEART low flow jet nebulizer (Vortran, Sacramento, Calif.). The nebulizer was operated at 50 psi with compressed medical grade air at the maximum flow rate (˜2.21 pm). Animals were exposed to the aerosol in a whole-body exposure chamber. Ten ml of an Ad2βgal-4 solution (5×10^10 IU) was aerosolized over approximately one hour. Some mice were pre-treated with 50 μl of dH2O or EGTA solution by intranasal instillation 0, 15, 30, or 60 min before aerosolization, while others received no treatment prior to exposure to aerosol. X-gal staining was performed 3 days post aerosolization.
# Cytochemical localization of Ogal expression in the trachea was observed using 5-bromo-4-chloro-3-indolyl-β-D-galactopyranoside (X-gal; Sigma). In brief, cannulated mouse lungs were fixed for 10 min by infusion of a fixing solution (2% paraformaldehyde and 0.2% glutaraldehyde in PBS). The lungs were then rinsed twice with 50 mM glycine in PBS, filled with X-gal solution, and stained overnight. Staining was stopped by transfering the samples into the fixing solution.
compound,measurement,setting,value
"O=C(O)CN(CCOCCOCCN(CC(=O)O)CC(=O)O)CC(=O)O [EGTA, Ethylene glycol bis(B-aminoethyl ether) N,N,N′,N′-tetraacetic acid]",increase in SEAP expression,"polarized NHBE cells [1]; 0.5 h pre-treatment, GL-67:pCF1-SEAP 40:53 μM 4 h, assayed after 48 h, FIG. 1",~55 fold
same,ability to transfect with cationic lipid:pDNA complexes,polarized NHBE cells [1]; treatment of polarized normal human bronchial epithelial cells,significant enhancement
same,Effects of Tight Junction Disrupting Compounds on Cationic Amphiphile: DNA Complex Binding,"polarized NHBE cells [2]; Table 1, grades Very Effective / Mildly Effective",Very Effective
same,complex internalization,polarized NHBE cells [2]; fully polarized NHBE cells pretreated before incubation with complexes,increased dramatically
same,toxicity,polarized NHBE cells [2]; pretreatment of fully polarized NHBE cells,minimal toxicity
same,"increasing the amount of internalized complex, compared with other reagents known to open tight junctions","polarized NHBE cells [2]; vs EDTA, poly-lysine, sodium caprate, decanoylcarnitine, sodium glycocholate",most effective
same,airway epithelial cell damage by EM,[3]; 0.4M,some damaged airway epithelial cells were observed
same,cells transduced by AdV in cartilaginous airways,[3]; treated prior to AdV instillation,localized to columnar epithelial cells
same,penetration of lanthanum precipitates through epithelial tight junctions,[4],penetrated through the epithelial tight junctions
same,effectiveness at disrupting tight junctions,tight junctions,more effective than EDTA
same,X-gal stained cells in trachea after AdV aerosol,mouse trachea; 50 μl of 0.1 M intranasal 30 min prior to aerosol,significant number of positively stained cells
same,X-gal stained cells in trachea after AdV aerosol,mouse trachea; pretreated 1 h prior to aerosol,no significant increase
